The source of these data is paper PMC12662691, “DDX3X Promotes Rotavirus Infection and Serves as an Antiviral Target” (Transboundary and Emerging Diseases, 2025).

Structures are written as SMILES.

Test [1] deals with MYAS33 RV strain. Description: EC50 determination of anti-RV activity by RT-qPCR, MYAS33 strain. Particulars: Rotavirus, 0.1 MOI, 24 h, read-out: EC50 against RV infection. The test is classed as cell-based. How it is done: (§1) Cells were seeded into 96-well plates, allowed to adhere, followed by drug inoculation in a concentration gradient along with RV infection at 0.1 MOI. After 24 h, cells were collected, total RNA was extracted, reverse transcription was performed, and RV was detected by RT-qPCR. The EC50 of the drug was calculated.

Test [2] deals with MYAS33 RV strain. Description: Antiviral efficacy screen, western blot of viral proteins. Format: cell-based, Rotavirus. The conditions noted are these: range of drug concentrations. How it is done: (a) Drugs were selected by gene dependent and network dependent strategy based on VP4 interacting proteins. (b) Cells were treated with a range of drug concentrations, and then, infected with MYAS33 RV strain. Subsequently, the cells were collected and subjected to western blot analysis to detect viral proteins.
Cells were collected, washed with PBS, and digested with trypsin. The cells were then collected in PBS into centrifuge tubes. After centrifugation, the supernatant was discarded. The cells was lysed, and the resulting lysate was transferred to a new centrifuge tube. 5 × SDS-PAGE sample buffer was added, and the samples were boiled in a water bath. Subsequently, SDS-PAGE was performed, and the proteins were transferred onto nitrocellulose membranes. The membranes were blocked with 5% skim milk at room temperature, washed three times with TBST, and incubated overnight at 4°C with primary antibodies. After washing three times with TBST, corresponding secondary antibodies were added and incubated for 1 h at room temperature. Following three additional washes with TBST, ECL reagent was prepared and applied to the membrane. Finally, the membrane was exposed in a chemiluminescence imaging system.

The next test has as its system SA11 RV strain. Description: EC50 determination of anti-RV activity by RT-qPCR, SA11 strain. Format: cell-based, Rotavirus. How it is done: as §1
The test system of test [3] is MYAS33 RV strain. Briefly: RK-33 viral titer by TCID50. The test is classed as cell-based, Rotavirus. How it is done:
(§2) Figure 7 RK-33 inhibits RV infection. (a, b) Cells were incubated with 10 μM RK-33 and infected with MYAS33 RV strain. The viral detection was conducted at 3, 6, 12, and 24 hpi by RT-qPCR detection, and at 12 and 24 hpi by TCID50. (c, d) EC50 of RK-33 against MSLH14 and SA11 strains was measured. (e) Flowchart of in vivo drug experiment. (f) Weight gain rate of mice. (g) Intestinal virus titer detection in mice. (h) H&E staining of intestine. (i–l) Cytokine detection of spleen. Statistical significance is determined by Student's test (^∗p < 0.05; ^∗∗p < 0.01; ^∗∗∗p < 0.001; ^∗∗∗∗p < 0.0001). HD, high dose; LD, low dose; ns, not significant. […] The name RK-33 is printed only in the plot legends of panels a and b.

Test [4] has as its system MSLH14 RV strain. Briefly: EC50 determination of anti-RV activity by RT-qPCR, MSLH14 strain. The test is classed as cell-based, Rotavirus. How it is done: as §1
The subject of test [5] is MSLH14 RV strain. Briefly: In vivo drug experiment in RV-challenged neonatal mice. Particulars: neonatal Kunming mice. How it is done: Pregnant Kunming mice were individually housed and bred until delivery. Neonatal mice were raised for 1 week. Mice were inoculated with 10^4 TCID50 units of the MSLH14 RV strain via gavage. Drug administration was performed with 0.005 mg/g (low dose group) or 0.01 mg/g (high dose group). The drugs were dissolved in a solvent formulated as follows: 10% DMSO, 40% PEG300, 5% Tween-80, and 45% normal saline. Viral titers in the small intestine were determined using the TCID50 method. Spleens were collected for total RNA extraction, followed by reverse transcription and cytokine detection. For histopathological examination, tissues were fixed with 4% paraformaldehyde, paraffin embedded, sectioned into slices, and stained with hematoxylin and eosin following standard protocols as previously described.

For test [6], the system named is MYAS33 RV strain. Briefly: RK-33 time course of RV infection, RT-qPCR. The test is classed as cell-based, Rotavirus. How it is done:
as §2
Total RNA was extracted from collected samples using TRIzol reagent (Sangon Biotech) and subsequently reverse transcribed into cDNA using a premix reverse transcriptase (Vazyme). For qPCR analysis, a SYBR Green qPCR Mix kit (Promega) was utilized in combination with a CFX96 system. All procedures were carried out following the manufacturers' guidelines as described previously.

[7] abbreviates: MSLH14, spleen, RT-qPCR, vs untreated controls.

The term EC50 denotes the concentration giving half of the maximal effect. As to `Cc1[nH]c2ccccc2c1CCNC(=O)c1cccs1` [CK-636], in the test on MYAS33 RV strain [1], the EC50 is 5.3 µM. Besides, the “Inhibitory effect against RV infection (antiviral efficacy screen)” value (“Inhibitory effect against RV infection” below) in the test on MYAS33 RV strain [2] is “exhibited inhibitory effects”.
For the molecule `Cc1[nH]c2ccccc2c1CCNC(=O)c1ccccc1F` [CK-666], the EC50 in the test on MYAS33 RV strain [1] came to 2.85 µM. Moreover, the “Inhibitory effect against RV infection” value with MYAS33 RV strain [2] is on record as “exhibited inhibitory effects”.
Take `COc1ccc(Cn2c3ncnc4c(ncn4Cc4ccc(OC)cc4)c-3nc2=O)cc1` [RK-33]: the “Inhibition of SA11 infection” value with SA11 RV strain was “also inhibits SA11 and MSLH14 infections”. The EC50 with SA11 RV strain (Rotavirus, 0.1 MOI, 24 h, RT-qPCR, read-out: EC50 against SA11) came to 0.86 µM; with MSLH14 RV strain [4] (Rotavirus, 0.1 MOI, 24 h, RT-qPCR, read-out: EC50 against MSLH14), 0.91 µM; in the test on MYAS33 RV strain [1], 1.05 µM. In addition, the “Viral titer (TCID50)” value is reported as “inhibited MYAS33 strain infection” in the test on MYAS33 RV strain [3] (10 μM RK-33, MYAS33, 12 h) and “inhibited MYAS33 strain infection” with MYAS33 RV strain [3] (10 μM RK-33, MYAS33, 24 h). Also, the “Inhibition of MSLH14 infection” value with MSLH14 RV strain [4] was “also inhibits SA11 and MSLH14 infections”. Also, the “Intestinal lesions (H&E histopathology)” value in the test with MSLH14 RV strain [5] (MSLH14, 5 days postinfection) was “alleviated intestinal lesions”. Besides, in the test on MSLH14 RV strain [5] (setting [7]), the “Spleen IFNG level” value is “significantly reduced levels”. In the test on MSLH14 RV strain [5] (setting [7]), the “Spleen IL-1B level” value is “significantly reduced levels”. The “Spleen IL-6 level” value in the test on MSLH14 RV strain [5] (setting [7]) is “significantly reduced levels”. Moreover, the “Spleen TNFA level” value in the test on MSLH14 RV strain [5] (setting [7]) is “significantly reduced levels”. The “Recovery of body weight (weight gain rate)” value with MSLH14 RV strain [5] (MSLH14 by gavage, 0.005 mg/g (low dose) or 0.01 mg/g (high dose), vs untreated controls) is recorded as “faster recovery of body weight”. For the same molecule, in the test with MSLH14 RV strain [5] (MSLH14 by gavage, 0.005 or 0.01 mg/g, small intestine, vs untreated controls), the “Intestinal viral titer (TCID50)” value is given as “significantly reduced”. Also, the “Inhibitory effect on RV (RT-qPCR)” value was “no significant inhibitory effect” in the test with MYAS33 RV strain [6] (10 μM RK-33, MYAS33, 3 hpi); “pronounced antiviral activity” in the test on MYAS33 RV strain [6] (10 μM RK-33, MYAS33, 6 hpi); “pronounced antiviral activity” with MYAS33 RV strain [6] (10 μM RK-33, MYAS33, 12 hpi); “pronounced antiviral activity” in the test with MYAS33 RV strain [6] (10 μM RK-33, MYAS33, 24 hpi). Further, the “Inhibitory effect against RV infection” value in the test with MYAS33 RV strain [2] is recorded as “exhibited inhibitory effects”.
Take `CC(COc1ccccc1Cc1ccccc1)N1CCCCC1` (centres unmarked) [benproperine phosphate]: the EC50 with MYAS33 RV strain [1] came to 4.69 µM. In addition, the “Inhibitory effect against RV infection” value in the test with MYAS33 RV strain [2] is listed as “exhibited inhibitory effects”.
Consider `COCCCC/C(=N\OCCN)c1ccc(C(F)(F)F)cc1` [fluvoxamine], for which the EC50 in the test on MYAS33 RV strain [1] turned out to be 14.8 µM. Further, in the test on MYAS33 RV strain [2], the “Inhibitory effect against RV infection” value is on record as “exhibited inhibitory effects”.
As to `Clc1cccc(N2CCN(c3cnnc4c(Cl)cccc34)CC2)c1` [FiVe 1], in the test on MYAS33 RV strain [1], the EC50 amounted to 3.99 µM. Besides, the “Inhibitory effect against RV infection” value with MYAS33 RV strain [2] is listed as “exhibited inhibitory effects”.
